From patent US11478526B2, “Methods of reducing neuroinflammation or toxicity induced by amyloid beta (abeta) using glucocorticoid induced leucine zipper (GILZ) analog peptides” (INDIANA UNIVERSITY RESEARCH AND TECHNOLOGY CORPORATION, priority 2016, dated 2022)

Tested on: SK-N-SH cells
Assay: MTT viability with dexamethasone
Assay type: cell-based, human
Conditions: 24 h
Method: Preliminary results: The expression of GILZ in human neuroblastoma cells was evaluated. […] After resting, the cells were cultured with increasing concentrations of dexamethasone (Dex: 0-10 μM) for 24 h and viability was determined by the MTT assay by measuring the absorbance of the intracellular formazon resulting from the reduction of the yellow tetrazolium MTT by the cell metabolic activity. Absorbance of vehicle treated cells was taken as 100% viable. GILZ expression was measured in protein extracts from separate SK-N-SH cultures by Western blot analysis using GILZ mAb [Santa Cruz Biotechnology, Dallas, Tex.]. Total RNA isolated from similar SK-N-SH cultures was reverse transcribed and the GILZ mRNA was amplified using the SYBR green qPCR mix (SA Biosciences, Fredrick, Md.) on the ABI Prism 7000 system (Applied Biosystem, Calif.).

`C[C@@H]1C[C@H]2[C@@H]3CCC4=CC(=O)C=C[C@]4(C)[C@@]3(F)[C@@H](O)C[C@]2(C)[C@@]1(O)C(=O)CO` [DEX, dexamethasone] was tested, and the “toxicity (MTT viability)” value (1 μM) was “not toxic” and the reduction of viability (10 μM) was 25%.
